Experimental data reported in US7431088B2, “Methods of controlled acidization in a wellbore” (Halliburton Energy Services, Inc., priority 2006, dated 2008).
Where a name gives a salt, the structure may show the parent alone.

Key:
[1] = for hydrolysis / reaction rate (comparison in words): deionized water, molar ratio of CaCO3
Procedure: In the following examples, various ester hydrolysis reactions were run in the presence of calcium carbonate (CaCO3) to simulate the consumption of filter cake material. The acid evolved in each reaction was measured per unit of time. The acid generated upon hydrolysis was rapidly consumed in a secondary reaction that produced carbon dioxide (CO2). The half-life was secured when half of the CaCO3 was consumed. That is, using PV=nRT, the amount of CaCO3 that would yield approximately 1 liter of CO2 was calculated to be about 4.47 grams. We doubled the amount of CaCO3 (8.94 grams) for the reactions and then calculated the half-life based on the yield of 1 liter of CO2. Unless otherwise specified, all half-life quotations are actually the time required for 4.47 grams of CaCO3 to be consumed.
The following general procedure was used in each of the examples. The closed system reactor shown in FIG. 1 was used to measure the amount of CO2 gas that evolved in each reaction. Water or brine was added to a boiling flask 10, which was heated to 100° C. […] Once the liquid was boiling, a weighed amount of ester was added to flask 10. The amount of ester employed was always in ratio to the water or to the make-up water used to formulate the brine except where commercially available brines were used. Following addition of the ester to the boiling liquid, a reflux condenser 12 was affixed to flask 10. The top of condenser 12 was fixed with an adapter 14 to an inlet tube 18 in a 2-hole rubber stopper 16. The inlet tube 18 was passed through stopper 16, providing a seal. An outlet tube 22 was run from the bottom of a flask 20 to a 1,000 mL graduated cylinder 24. The flask 20 was charged with XP-07 base oil, commercially available from Halliburton Energy Services, Inc. The outlet tube 22 served the purpose of discharging the oil into graduated cylinder 24. The hydrolysis reaction produced acid in flask 10 that reacted with the CaCO3 to produce CO2 gas. The gas displaced the oil in flask 20 into graduated cylinder 24. The rate of CO2 evolution thus could be monitored visually by reading of the amount of oil in graduated cylinder 24 per unit of time.
Solutions containing various esters of lactic acid and of glycerol (i.e., monoacetin, ethyl lactate, triacetin, tripropionin), butyl formate (a control), and BDF-325 diethyleneglycol diformate (a control) in neutral water were prepared and combined with a molar ratio of CaCO3. Hydrolysis reactions were then carried out using the resulting solutions at 100° C. The hydrolysis reactions were monitored, and the half-lives of the esters were compared. The volume of oil displaced by the CO2 gas is plotted as a function of time in FIG. 2. […] The butyl formate to CaCO3 molar ratio was doubled for comparison purposes.
Solutions containing 10 volume % monoacetin, diacetin, and triacetin in deionized water were prepared and combined with a molar ratio of CaCO3. Hydrolysis reactions were then carried out using the resulting solutions at 100° C. The hydrolysis reactions were monitored, and the half-lives of the esters were compared. The volume of oil displaced by the CO2 gas is plotted as a function of time in FIG. 3.

[2] = Solubility of ester in water; format: physicochemical

CCCCOC(=O)C(C)O (stereo not drawn) [Butyl lactate]
effect of doubling the ester to CaCO3 molar ratio on reaction rate [1]: doubled its reaction rate
hydrolysis / reaction rate (comparison in words) ([1]; 100° C.): faster than that of the butyl formate

CC(=O)OCC(O)COC(C)=O [Diacetin]
hydrolysis / reaction rate (comparison in words) ([1]; 100° C.): very similar

CCOC(=O)C(C)O (stereo not drawn) [Ethyl Lactate]
hydrolysis performance in different aqueous solutions ([1]; 10 volume % in deionized water and various brines, 100° C.): performed consistently

CC(=O)OCC(O)CO (stereo not drawn) [Monoacetin]
half-life relative to target ([1]; buffer): within the targeted range

CC(=O)OCC(COC(C)=O)OC(C)=O [Triacetin]
hydrolysis / reaction rate (comparison in words) ([1]; 100° C.): very similar

CCCCOC=O [butyl formate, reference compound]
effect of doubling the ester to CaCO3 molar ratio on reaction rate [1]: surprisingly similar
hydrolysis / reaction rate (comparison in words) ([1]; 100° C.): slow reaction rate
solubility in water [2]: relative insolubility
